From paper PMC8812735, “Discovery of triterpenoids as potent dual inhibitors of pancreatic lipase and human carboxylesterase 1” (Journal of Enzyme Inhibition and Medicinal Chemistry, 2022)

Tests used:
[1] = biological target: T1, hCES1A (Homo sapiens, UniProt P23141); test: Inhibition of hCES1A-mediated NLMe hydrolysis in human liver microsomes; format: biochemical; conditions: for Inhibition mode hCES1A / Ki / IC50: NLMe substrate, HLM; for Ki: Lineweaver–Burk second plot; for IC50: mean ± SD (n = 3), read-out: IC50 (µM) hCES1A; for Reversibility of hCES1A inhibition: dose-response curves not affected by pre-incubation times
T1 construct: tissue Bioreclamation IVT lot No. X008067; host or cells: pooled human liver microsomes from 50 donors
T1 sequence (P23141 18-567): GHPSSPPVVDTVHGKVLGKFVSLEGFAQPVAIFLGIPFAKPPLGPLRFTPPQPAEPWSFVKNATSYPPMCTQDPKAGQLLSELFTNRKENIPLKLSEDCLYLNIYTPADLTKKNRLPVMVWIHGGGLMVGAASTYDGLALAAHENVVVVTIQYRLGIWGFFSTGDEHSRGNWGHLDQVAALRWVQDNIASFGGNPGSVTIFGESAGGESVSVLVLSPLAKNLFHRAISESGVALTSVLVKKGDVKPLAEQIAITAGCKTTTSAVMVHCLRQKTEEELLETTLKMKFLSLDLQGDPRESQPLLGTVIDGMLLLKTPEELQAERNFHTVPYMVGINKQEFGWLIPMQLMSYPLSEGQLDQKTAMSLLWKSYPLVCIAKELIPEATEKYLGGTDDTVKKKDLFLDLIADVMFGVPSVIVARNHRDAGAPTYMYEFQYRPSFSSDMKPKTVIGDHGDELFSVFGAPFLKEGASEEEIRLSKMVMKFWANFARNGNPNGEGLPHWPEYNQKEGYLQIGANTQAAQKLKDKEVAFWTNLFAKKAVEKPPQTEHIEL
Description: N-Alkylated D-luciferin methyl ester (NLMe), a Specific probe for hCES1A[45], was used for assessing the inhibitory effects for triterpenoids, and BNPP was used as a positive inhibitor of hCES1A. […] Then NLMe (2 µL, 0.15 mM) was added to start the reaction. After shaking the reaction in 37 °C incubator for 10 min, 50 µL of reaction solution was removed and mixed with LDR (50 µL) to terminate the reaction. A multi-mode microplate reader was used to detect the luminescence signal of NL (the hydrolysed metabolite of NLMe). The luminescence product of NL was measured at 580 nm (gain: 140). The final volume ratio of DMSO was less than 1% (V/V).
Subsequently, various concentrations of substrates (selected according to Km) and different concentrations of inhibitors were used to determine the corresponding reaction rate, and the second slope graph of the Lineweaver–Burk diagram was used as a function of the inhibitor to calculate the corresponding inhibition constant (Ki) value. All kinetic data were fitted by the following kinetic equations (a–c), for competitive (a), non-competitive (b) and mixed inhibition (c): (a) V=(VmaxS)/[Km(1+I/Ki)+S] (b) V=(VmaxS)/[(Km+S)×(1+I/Ki)] (c) V=(VmaxS)/[(Km+S)×(1+I/αKi)] where V is the hydrolytic velocity of the reaction, Vmax is the maximum velocity. S and I are substrate (4-MUO, NLMe) and inhibitor (compound 39/41) concentrations, respectively. Ki is the inhibition constant of the tested inhibitor against the target PL and hCES1A; Km is the Michaelis constant (the substrate concentration at half of the Vmax).
All measurements were made in triplicate and the data obtained in the experiment were shown as mean ± SD. The IC50 and Ki values of the compounds with strong inhibitory effect were evaluated by nonlinear regression with graphpad prism 7.0 software (GraphPad Software, Inc., La Jolla, CA).

[2] = biological target: T2, Butyrylcholinesterase (BuChE) (Homo sapiens, UniProt P06276); test: Inhibition of BuChE-mediated BTCH hydrolysis; format: biochemical
T2 construct: from tissue; host or cells: human serum
Description: To assay the inhibitory effects of triterpenoids on Butyrylcholinesterase (BuChE), butyrylthiocholine (BTCH) was used as a substrate for BuChE, The total volume of the system was 100 µL. Including 2 µL DMSO/inhibitor, 2 µL human serum, 84 µL buffered PBS (pH 7.4, 0.1 M), 10 µL substrate iodised butyrylthiocholine (0.3 mM, final concentration) and 2 µL developer 5–5′-dithiobis(2-nitrobenzoic acid) (DTNB) (1 mM, final concentration). The assay protocol of […] was depicted previously. All measurements were performed in triplicates.

[3] = test system: 3T3-L1 cells; test: Lipid droplet formation in differentiating 3T3-L1 cells (Oil red O staining); format: cell-based, mouse; conditions: high concentration (5 µM)
Description: The cells were planted in a well plate and cultured for 48 h after the cells were 100% confluent. Mix inhibitors compounds 39 and 41 with solution I (10 µg/mL insulin in DMEM/F: 12 medium, 0.5 mM 3-isobutyl-1-methylxanthine and […]) to different concentrations, Then added to different wells and incubated for 48 h, then the inhibitor was mixed with solution II (5 µg/mL insulin in DMEM/F: 12 medium), then added to the wells of the same concentration and incubated for 48 h. Then, the medium in the well was replaced with DMEM/F:12 medium with different concentrations of inhibitors, and the culture was continued for 48 h.
The lipid droplets of 3T3-L1 cells were stained with Oil Red O stain kit (Beijing solebo Technology Co., Ltd., Beijing, China) after cultured for 48 h. In short, 3T3-L1 cells were washed with PBS 2 times and fixed with ORO fixative for 20–30 min, and then washed again with deionised water for 3 times. Then, 3T3-L1 cells were washed with 60% isopropanol for 5 min, immersed in oil red O solution for 10–20 min, and washed with deionised water for 3–5 times. Mayer's haematoxylin staining solution was added, the nucleus was stained for 1–2 min, then washed for 3–5 times, and Oro buffer solution was added for 1 min. Finally, distilled water was added to cover the cells. The stained lipid droplets were observed under inverted microscope (Lecai DMI8).

T2 sequence (P06276 29-602): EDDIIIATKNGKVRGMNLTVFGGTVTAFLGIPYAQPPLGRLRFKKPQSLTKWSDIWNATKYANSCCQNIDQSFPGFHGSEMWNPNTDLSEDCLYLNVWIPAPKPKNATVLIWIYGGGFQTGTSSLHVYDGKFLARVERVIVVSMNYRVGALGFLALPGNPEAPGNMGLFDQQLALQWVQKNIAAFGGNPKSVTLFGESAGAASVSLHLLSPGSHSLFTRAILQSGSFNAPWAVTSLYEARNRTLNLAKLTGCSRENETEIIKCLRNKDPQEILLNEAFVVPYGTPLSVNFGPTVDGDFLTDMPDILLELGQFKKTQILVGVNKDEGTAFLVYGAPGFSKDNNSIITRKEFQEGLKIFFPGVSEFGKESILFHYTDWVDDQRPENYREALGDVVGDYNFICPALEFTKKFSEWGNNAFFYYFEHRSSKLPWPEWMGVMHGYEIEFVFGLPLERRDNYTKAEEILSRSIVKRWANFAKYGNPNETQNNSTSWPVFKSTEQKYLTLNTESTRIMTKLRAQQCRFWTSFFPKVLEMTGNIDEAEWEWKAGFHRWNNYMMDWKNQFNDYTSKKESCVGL

Structure (SMILES) | Inhibition mode hCES1A [1] | Ki [1] [µM] | IC50 [1] [µM] | Reversibility of hCES1A inhibition [1] | IC50 [2] [nM] | lipid droplet formation [3]
CC(=O)OC1CCC2(C)C(CCC3(C)C2CC=C2C4C(C)C(C)CCC4(C(=O)O)CCC23C)C1(C)C (stereo not drawn) [Compound 41] | Competitive | 0.019 | 0.014 ± 0.002 | reversible inhibitors | > 100000 | almost no lipid droplets were formed
CC1(C)CCC2(C(=O)O)CCC3(C)C(=CCC4C5(C)C=C(O)C(=O)C(C)(C)C5CCC43C)C2C1 (stereo not drawn) [Compound 39] | Competitive | 0.043 | 0.055 ± 0.006 | reversible inhibitors | > 100000 | almost no lipid droplets were formed
